One assay concerns Cl^− secretion. Put plainly: Short-circuit current (Isc) measurement with Ussing chambers, large-intestinal (cecum) mucosa specimen. The format is cell-based, mouse. The text has this:
A mouse was killed by cervical vertebra dislocation. After abdominal incision, the cecum was extracted. The boundary parts of the cecum with the small intestine and the large intestine were cut to extract the cecum. The cecum was cut open with scissors into a sheet. In order to completely remove the contents, the cecum was pinched with tweezers and washed with replacement fluid. Replacement fluid was placed in a petri dish covered with rubber, and the cecum was attached thereon with the serosa side up. The muscular layer was separated using tweezers while constantly aerating the replacement fluid in the petri dish with 95% O2/5% CO2 to prepare a specimen composed of the mucosa and the submucosa. This specimen was divided into four pieces for use in the experiment.
The mucosa specimen was placed between two Ussing-type chambers each having a window with an area of 0.2 cm^2 and containing 5 mL of replacement fluid. For the measurement of the electrical potential difference, a pair of calomel electrodes was connected to both chambers through 1 M KCl/2% agar salt bridges. For energization, Ag/AgCl electrodes connected through 1 M NaCl/2% agar salt bridges were installed. These electrodes were connected to a voltage clamp apparatus, and the short-circuit current (Isc) was measured. As for Isc, current flowing from the mucosa side to the serosa side was determined as being positive.
Tetrodotoxin (TTX) was administered to the serosa side to block the nerve, and then forskolin (FK) was administered to the serosa side. […] At least part of this cAMP-dependent increase in Isc is attributable to the activation of a Cl^− secretion mechanism.
Subsequently, the compound 1 was administered to the serosa side to decrease Isc (to suppress Cl^− secretion). […] Lastly, a Na^+.K^−.2Cl cotransporter inhibitor (which inhibits Cl^− secretion) was administered to the serosa side to observe a slight decrease in Isc.

In a further assay the test system is gastric acid secretion. Description: Gastric acid secretion measurement with Ussing chambers, stomach specimen stimulated with histamine. The conditions noted are these: for suppression of the gastric acid secretion rate: versus ground state; for Gastric acid secretion rate: histamine 1 mM on serosa side, 37° C. It counts as cell-based, mouse. The procedure: A mouse was killed by cervical vertebra dislocation. After abdominal incision, the stomach was extracted. The gastric acid secretion portion was cut out, washed with replacement fluid, and divided into two pieces.
The specimen was placed between two chambers facing each other and each having a window with an area of 0.2 cm^2 and containing 10 mL of replacement fluid. Decreases in pH of the replacement fluid in the chamber on the lumen side were successively measured using a pH electrode at 37° C. The gastric acid secretion rate was calculated from the decrease in pH measured after completion of the experiment and the previously measured buffer capacity of the replacement fluid. The experiment was conducted by previously administering histamine (1 mM) to the replacement fluid on the serosa side for stimulating gastric acid secretion.
L-Menthol and compound 1 were administered to the replacement fluid on the lumen side so that the final concentrations were 50 μM and 100 μM, respectively. The administration was performed using stock solutions each having a concentration of 1000 times that of the target final concentration and using DMSO as a solvent. Compound 1 and 1-menthol were administered at 20 minutes and at 14 minutes, respectively, from the start of the experiment.

Regarding `CC(C)[C@@H]1CC[C@@H](C)C[C@H]1O` [l-Menthol], the “decrease in Isc” value in the assay on Cl^− secretion (chromanol 293B administered in advance (Examples 2 and 3, FIG. 4 and 5)) was “did not decrease the Isc”. Besides, the “suppression of the gastric acid secretion rate” value in the assay with gastric acid secretion (50 μM) was 57%. Moreover, the “Gastric acid secretion rate” value with gastric acid secretion (Example 5, 50 μM on lumen side) was found to be 0.64 micro Eq/cm^2/h.
As to `CC1CCC(C(C)C)C(OCC(C)(O)CO)C1` (stereo not shown) [Compound 1, 2-methyl-3-(menthoxy)propane-1,2-diol], the “change in Isc (Cl^− secretion)” value with Cl^− secretion (administered to serosa side after TTX and forskolin (Example 1, FIG. 3)) is on record as “decrease Isc”. The “suppression of the gastric acid secretion rate” value with gastric acid secretion (100 μM) is listed as 75%. Further, the “Gastric acid secretion rate” value with gastric acid secretion (Example 4, 100 μM on lumen side) amounted to 0.43 micro Eq/cm^2/h.
Regarding `CCS(=O)(=O)N(C)[C@H]1c2cc(C#N)ccc2OC(C)(C)[C@@H]1O` (racemic) [chromanol 293B], the Isc-suppressing reaction result in the assay with Cl^− secretion (chromanol 293B administered first, before compound 1 (Example 2, FIG. 4)) was “can be observed”.

(Values after US20110281945A1, “GASTRIC ACID SECRETION INHIBITOR, AND POTASSIUM CHANNEL INHIBITOR” (priority 2009, published 2011).)
